From article PMC11882969 (Nature Communications, 2025)
“And” between values parts separate entries of the source, which are not always exact repeats. Identical values can stand only once.

Assays:
[1] = target: panel of 320 non-olfactory GPCRs (Homo sapiens, UniProt P49146); format: cell-based
mice [2] = test: Hot plate, 52 °C; format: in vivo, mouse
mice [3] = test: Catalepsy test, vertical wire mesh; format: in vivo, mouse
Experimental: Thirty min after an i.p. injection of the compounds, mice were placed on a vertical wire mesh and the latency to move all four paws was recorded.

mice [4] = test system: mice
Experimental: For all behavioral tests, the experimenter was always blind to treatment. Animals were first habituated for 30-60 min in Plexiglas cylinders and then tested 30 min after i.p. or i.t. injection of the compounds. The thermal (Hargreaves, hotplate and tail flick) and ambulatory (rotarod) tests were conducted as described[96]. Briefly, hindpaw thermal sensitivity was measured with a radiant heat source (Hargreaves) or on a hotplate at 52 °C. For the tail flick assay, sensitivity was measured by immersing the tail into a 50 °C water bath. For the ambulatory (rotarod) test, before testing with any compound, mice underwent three trainings on three consecutive days until they reach 300 sec. Each training has three sessions of five min each. Therapeutic window was calculated as the ratio of the minimum dose of side effect phenotype to the minimum dose of analgesic phenotype.

[5] = Pharmacokinetics: plasma, brain, CSF; details: for concentration at 1 min / concentration at 5 min / concentration at 15 min / concentration at 30 min / concentration at 60 min / concentration at 120 min / concentration at 240 min / concentration at 360 min / concentration at 480 min: intraperitoneal
[6] = 0.2 mg/kg, individual animals, FigS11b
[7] = male, CD-1, mouse, CSF, 0.2 mg/kg
[8] = male, CD-1, mouse, brain, 0.2 mg/kg
[9] = male, CD-1, mouse, plasma, 0.2 mg/kg
[10] = male, CD-1, mouse, plasma, ip, 0.2 mg/kg

Sequence of panel of 320 non-olfactory GPCRs (P49146 whole entry): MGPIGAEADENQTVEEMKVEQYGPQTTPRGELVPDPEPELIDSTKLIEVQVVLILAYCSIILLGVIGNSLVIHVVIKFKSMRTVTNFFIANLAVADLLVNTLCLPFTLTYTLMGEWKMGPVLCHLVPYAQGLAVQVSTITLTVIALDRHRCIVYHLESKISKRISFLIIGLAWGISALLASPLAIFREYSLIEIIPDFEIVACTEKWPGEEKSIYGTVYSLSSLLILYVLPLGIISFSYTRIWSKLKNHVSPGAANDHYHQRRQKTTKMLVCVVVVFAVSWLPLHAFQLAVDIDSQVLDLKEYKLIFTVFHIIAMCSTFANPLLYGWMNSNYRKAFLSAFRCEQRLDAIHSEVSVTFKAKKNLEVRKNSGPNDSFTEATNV

Question: For `Cc1cc(C(=O)NC(C)(c2ccco2)c2ccco2)nn1-c1cccc(C(F)(F)F)c1` [‘4936], which “Fold of Basal RLU” value [1] is on record?
Answer: 1.1 fold and 0.9 fold and 0.7 fold

Question: What about the Jump (mice [2]; [6]) of the same compound?
Answer: 2 (2×) and 4 and 0 (2×)

Question: And the Paw lick (mice [2]; [6])?
Answer: 27 and 43 and 44 and 13 and 16

Question: And the Paw shake (mice [2]; [6])?
Answer: 12 (2×) and 25 and 5 and 6

Question: And the Paw withdrawal (mice [2]; [6])?
Answer: 24 (2×) and 13 and 23 and 8

Question: What about the “hot plate response normalised to baseline (Figure4b), individual animals” value (from here on “hot plate response normalised”) (mice [2]; Dose 0.05 mg/kg) of the same compound?
Answer: 102.582 and 109.155 and 97.1831 and 135.446 and 112.911

Question: And the “hot plate response normalised” value (mice [2]; Dose 0.1 mg/kg)?
Answer: 324.648 and 182.16 and 233.803 and 158.685 and 147.887 and 257.981 and 154.695 and 178.169 and 197.418 and 155.869

Question: And the “hot plate response normalised” value (mice [2]; Dose 0.2 mg/kg)?
Answer: 174.413 and 176.291 and 188.028 and 167.84 and 94.8357 and 253.991 and 380.986 and 174.648 and 215.493 and 126.291

Question: What about the “hot plate response normalised” value (mice [2]; Dose 0.5 mg/kg) of the same compound?
Answer: 308.685 and 139.202 and 403.052 and 315.493 and 134.742 and 404.695 and 140.141 and 141.549 and 236.62 and 416.667

Question: What about the “lowest dose with significantly increased hot plate latency” value (mice [2]; i.p., 30 min after injection) of the same compound?
Answer: 0.5 mg/kg

Question: And the “catalepsy (Figure6c), individual animals” value (mice [3]; 0.2 mg/kg dose)?
Answer: 0.9 and 0.7 and 0.8 (2×) and 0.4

Question: And the “catalepsy (Figure6c), individual animals” value (mice [3]; 0.5 mg/kg dose)?
Answer: 0.6 (3×) and 0.8 and 0.9

Question: And the “catalepsy (Figure6c), individual animals” value (mice [3]; 1 mg/kg dose)?
Answer: 0.7 and 0.6 and 1.2 and 1.1 (2×)

Question: What about the “catalepsy, latency to move all four paws” value (mice [3]; i.p., ‘1350 at 0.2 or 0.5 mg/kg, haloperidol 1.0 mg/kg) of the same compound?
Answer: does not induce catalepsy at any tested dose up to 1 mg/kg

Question: What about the “therapeutic window, Acetone” value (mice [4]; Figure 6e, vs rotarod) of the same compound?
Answer: 10

Question: What about the “therapeutic window, Hot Plate” value (mice [4]; Figure 6e, vs rotarod) of the same compound?
Answer: 4

Question: And the “therapeutic window, analgesia vs catalepsy” value (mice [4]; Figure 6f)?
Answer: greater than 5

Question: And the “brain AUC0→inf” value ([5]; 0.2 mg/kg i.p., CD-1 mice)?
Answer: 5610 ng·min/mL

Question: What about the “brain Cmax” value ([5]; 0.2 mg/kg i.p., CD-1 mice) of the same compound?
Answer: 26.2 ng/g

Question: And the “level in CSF” value ([5]; 0.2 mg/kg i.p., CD-1 mice)?
Answer: but not CSF compartments

Question: And the concentration at 1 min [5, 7]?
Answer: 0 ng/mL

Question: And the concentration at 5 min [5, 7]?
Answer: 0 ng/mL

Question: And the concentration at 15 min [5, 7]?
Answer: 0 ng/mL

Question: What about the concentration at 30 min [5, 7] of the same compound?
Answer: 0 ng/mL

Question: What about the concentration at 60 min [5, 7] of the same compound?
Answer: 0 ng/mL

Question: What about the concentration at 120 min [5, 7] of the same compound?
Answer: 0 ng/mL

Question: And the concentration at 240 min [5, 7]?
Answer: 0 ng/mL

Question: And the concentration at 360 min [5, 7]?
Answer: 0 ng/mL

Question: What about the concentration at 480 min [5, 7] of the same compound?
Answer: 0 ng/mL

Question: What about the concentration at 1 min [5, 8] of the same compound?
Answer: 0 ng/g

Question: What about the concentration at 5 min [5, 8] of the same compound?
Answer: 2.39 ng/g

Question: And the concentration at 15 min [5, 8]?
Answer: 12 ng/g

Question: What about the concentration at 30 min [5, 8] of the same compound?
Answer: 25.2 ng/g

Question: What about the concentration at 60 min [5, 8] of the same compound?
Answer: 26.1 ng/g

Question: What about the concentration at 120 min [5, 8] of the same compound?
Answer: 17.9 ng/g

Question: And the concentration at 240 min [5, 8]?
Answer: 6.06 ng/g

Question: What about the concentration at 360 min [5, 8] of the same compound?
Answer: 7.4 ng/g

Question: And the concentration at 480 min [5, 8]?
Answer: 1.98 ng/g

Question: And the half-life ([5]; male, CD-1, mouse, brain, ip, 0.2 mg/kg)?
Answer: 2.08 h

Question: What about the concentration at 1 min [5, 9] of the same compound?
Answer: 0 ng/mL

Question: What about the concentration at 5 min [5, 9] of the same compound?
Answer: 0.512 ng/mL

Question: And the concentration at 15 min [5, 9]?
Answer: 1.63 ng/mL

Question: And the concentration at 30 min [5, 9]?
Answer: 4.54 ng/mL

Question: And the concentration at 60 min [5, 9]?
Answer: 3.59 ng/mL

Question: And the concentration at 120 min [5, 9]?
Answer: 3.55 ng/mL

Question: What about the concentration at 240 min [5, 9] of the same compound?
Answer: 1.18 ng/mL

Question: What about the concentration at 360 min [5, 9] of the same compound?
Answer: 0.867 ng/mL

Question: What about the concentration at 480 min [5, 9] of the same compound?
Answer: 0 ng/mL

Question: And the AUC(0-inf) [5, 10]?
Answer: 14.4 ng·h/mL

Question: What about the Cmax [5, 10] of the same compound?
Answer: 4.5 ng/mL and 11 nM
